Measurements: US6777412B2 (priority 1990, dated 2004)
Where two headings read alike, the source gives them in different places. Marks after values point to notes of the source that are not given here.

Columns and labels:
[1] = system: Plasmopara viticola; assay: Foliar fungal disease test on plants: Plasmopara viticola (Pv); format: in vivo
Procedure, shortened: (§1)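 Potted plants treated by foliar spray to maximum retention (100 ppm a.i. unless stated) plus root drench (~40 ppm a.i. in dry soil), with 0.05% Tween 20 on cereals, one or two days before spore-suspension inoculation.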

[2] = system: Venturia inaequalis; assay: Foliar fungal disease test on plants: Venturia inaequalis (Vi); format: in vivo
Procedure, shortened: as §1

[3] = system: Puccinia recondita; assay: Foliar fungal disease test on plants: Puccinia recondita (Pr); format: in vivo
Procedure, shortened: as §1

[4] = system: Cercospora arachidicola; assay: Foliar fungal disease test on plants: Cercospora arachidicola (Ca); format: in vivo
Description: The compounds were tested against a variety of foliar fungal diseases of plants. The technique employed was as follows.
The plants were grown in John Innes Potting Compost (No.1 or 2) in 4 cm diameter minipots. The test compounds were formulated either by bead milling with aqueous Dispersol T or as a solution in acetone or acetone/ethanol which was diluted to the required concentration immediately before use. For the foliage diseases, the formulations (100 ppm active ingredient except where otherwise indicated) were sprayed onto the foliage and applied to the roots of the plants in the soil. The sprays were applied to maximum retention and the root drenches to a final concentration equivalent to approximately 40 ppm a.i. in dry soil. Tween 20, to give a final concentration of 0.05%, was added when the sprays were applied to cereals.
For most of the tests the compound was applied to the soil (roots) and to the foliage (by spraying) one or two days before the plant was inoculated with the disease. An exception was the test on Erysiphe graminis in which the plants were inoculated 24 hours before treatment. Foliar pathogens were applied by spray as spore suspensions onto the leaves of test plants. After inoculation, the plants were put into an appropriate environment to allow infection to proceed and then incubated until the disease was ready for assessment. The period between inoculation and assessment varied from four to fourteen days according to the disease and environment.
The disease control vas recorded by the following grading:
3=trace-5% of disease on untreated plants
2=6-25% of disease on untreated plants
1=26-59% of disease on untreated plants
0=60-100% of disease on untreated plants
Ca Cercospora arachidicola

[5] = system: Pyricularia oryzae; format: in vivo
[6] = system: Phytophthora infestans lycopersici; format: in vivo
[7] = system: Erysiphe graminis hordei; assay: Foliar fungal disease test on plants: Erysiphe graminis hordei (Egh); format: in vivo
[8] = 100 ppm active ingredient foliar spray plus root drench (approx. 40 ppm a.i. in dry soil), one or two days before inoculation
[9] = 100 ppm active ingredient foliar spray plus root drench (approx. 40 ppm a.i. in dry soil), plants inoculated 24 hours before treatment

SMILES | disease control grading, Pv (Plasmopara viticola) [1, 8] | disease control grading, Vi (Venturia inaegualis) [2, 8] | disease control grading, Pr (Puccinia recondita) [3, 8] | disease control grading, Ca (Cercospora arachidicola) [4, 8] | disease control grading, Po (Pyricularia oryzae) [5, 8] | disease control grading, Pil (Phytophthora infestans lycopersici) [6, 8] | disease control grading, Egh (Erysiphe graminis hordei) [7, 9] | melting point | disease control grading, Pv (Plasmopara viticola) ([1]; 10 ppm foliar application only) | disease control grading, Vi (Venturia inaegualis) ([2]; 10 ppm foliar application only) | disease control grading, Pr (Puccinia recondita) ([3]; 10 ppm foliar application only) | disease control grading, Ca (Cercospora arachidicola) ([4]; 10 ppm foliar application only) | disease control grading, Po (Pyricularia oryzae) ([5]; 10 ppm foliar application only) | disease control grading, Pil (Phytophthora infestans lycopersici) ([6]; 10 ppm foliar application only) | disease control grading, Egh (Erysiphe graminis hordei) ([7]; 10 ppm foliar application only)
CO/C=C(/C(=O)OC)c1ccccc1Oc1cc(Nc2ccccc2)ncn1 [4 of Table I] | 4 (4=no disease) | 4 (4=no disease) | 4 (4=no disease) | 4 (4=no disease) | 3 (3=trace-5% of disease on untreated plants) | 3 (3=trace-5% of disease on untreated plants) | 4 (4=no disease) |  |  |  |  |  |  |  | 
CO/C=C(/C(=O)OC)c1ccccc1Oc1cc(OCc2ccccc2)ncn1 [23 of Table I] | 4 (4=no disease) | 4 (4=no disease) | 4 (4=no disease) | 4 (4=no disease) | 4 (4=no disease) |  | 4 (4=no disease) |  |  |  |  |  |  |  | 
CO/C=C(/C(=O)OC)c1ccccc1Oc1cc(OCc2ccc([N+](=O)[O-])cc2)ncn1 |  |  |  |  |  |  |  | 96 to 98 °C |  |  |  |  |  |  | 
CO/C=C(/C(=O)OC)c1ccccc1Oc1cc(Sc2ccccn2)ncn1 [218 of Table I] | 4 (4=no disease) | 4 (4=no disease) | 4 (4=no disease) | 4 (4=no disease) | 3 (3=trace-5% of disease on untreated plants) | 3 (3=trace-5% of disease on untreated plants) | 4 (4=no disease) |  |  |  |  |  |  |  | 
CO/C=C(/C(=O)OC)c1ccccc1Oc1cc(S(=O)(=O)c2ccccn2)ncn1 [356 of Table I] | 4 (4=no disease) | 4 (4=no disease) | 1 (1=26-59% of disease on untreated plants) | 3 (3=trace-5% of disease on untreated plants) |  | 0 (0=60-100% of disease on untreated plants) | 0 (0=60-100% of disease on untreated plants) |  |  |  |  |  |  |  | 
COC=C(C(=O)OC)c1ccccc1Oc1nccc(-c2ccccc2)n1 [180 of Table III] |  |  |  |  |  |  |  |  | 4^a (4=no disease) | 4^a (4=no disease) | 4^a (4=no disease) | 3^a (3=trace-5% of disease on untreated plants) | 3^a (3=trace-5% of disease on untreated plants) | 4^a (4=no disease) | 4^a (4=no disease)
CO/C=C(/C(=O)OC)c1ccccc1Oc1cc(N(C)c2ccccc2C#N)ncn1 [354 of Table I] | 4 (4=no disease) | 4 (4=no disease) | 4 (4=no disease) | 4 (4=no disease) | 3 (3=trace-5% of disease on untreated plants) | 0 (0=60-100% of disease on untreated plants) | 4 (4=no disease) |  |  |  |  |  |  |  | 
CO/C=C(/C(=O)OC)c1ccccc1Oc1cc(Nc2ccccc2C#N)ncn1 [377 of Table I] | 4 (4=no disease) | 4 (4=no disease) | 4 (4=no disease) | 4 (4=no disease) | 0 (0=60-100% of disease on untreated plants) | 4 (4=no disease) | 4 (4=no disease) |  |  |  |  |  |  |  | 
CO/C=C(/C(=O)OC)c1ccccc1Oc1cc(Nc2ccccn2)ncn1 [220 of Table I] | 4 (4=no disease) | 4 (4=no disease) | 4 (4=no disease) | 4 (4=no disease) | 4 (4=no disease) | 0 (0=60-100% of disease on untreated plants) | 4 (4=no disease) |  |  |  |  |  |  |  | 
CO/C=C(/C(=O)OC)c1ccccc1Oc1cc(OCCc2ccc(C#N)cc2)ncn1 [359 of Table I] | 4 (4=no disease) |  | 4 (4=no disease) | 4 (4=no disease) |  | 4 (4=no disease) | 4 (4=no disease) |  |  |  |  |  |  |  | 
CO/C=C(/C(=O)OC)c1ccccc1Oc1cc(N(C(=O)c2ccccc2)C(=O)c2ccccc2)ncn1 [398 of Table I] | 4 (4=no disease) | 4 (4=no disease) | 4 (4=no disease) | 4 (4=no disease) | 3 (3=trace-5% of disease on untreated plants) | 4 (4=no disease) | 4 (4=no disease) |  |  |  |  |  |  |  | 
CO/C=C(/C(=O)OC)c1ccccc1Oc1cc(Sc2ncccn2)ncn1 [239 of Table I] | 4 (4=no disease) | 4 (4=no disease) | 4 (4=no disease) | 4 (4=no disease) | 3 (3=trace-5% of disease on untreated plants) | 4 (4=no disease) | 4 (4=no disease) |  |  |  |  |  |  |  | 
CO/C=C(/C(=O)OC)c1ccccc1Oc1cc(-c2ccccc2)ncn1 [180 of Table I] | 4 (4=no disease) | 4 (4=no disease) | 4 (4=no disease) | 4 (4=no disease) |  |  | 4 (4=no disease) |  |  |  |  |  |  |  | 
